Laboratory results reported in patent publication US6914045B2, “Glycopeptide antibiotics” (Wyeth Holdings Corporation, priority 2001, dated 2005).
Converted amounts (≈) assume the structure as drawn.

Tests used:
Assay in all cases: in vitro antibacterial evaluation, MIC by broth dilution
Type in all cases: cell-based
Enterococcus sp. = conditions: broth dilution, 18 hours at 35° C.
Method in brief: (§1)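 Broth dilution per NCCLS M7-A2 in Mueller-Hinton II medium, inoculum 5×10^5 CFU/mL, antibiotic range 64-0.06 μg/mL. MIC taken as lowest concentration inhibiting growth; Gram-positive panel includes recent clinical isolates resistant to methicillin, penicillin and/or vancomycin.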

Escherichia coli = conditions: 18 hours at 35° C.
Method in brief: as §1

Streptococcus sp. = conditions: broth dilution, 18 hours at 35° C.
Method in brief: as §1

Staphylococcus sp. = conditions: broth dilution, 18 hours at 35° C.
Method in brief: as §1

Q: With `CC(c1ccccc1)C1NC(=O)CNC(=O)C(CO)NC(=O)C(C(O)C2CNC(=N)N2C2OC(CO)C(O)C(O)C2O)NC(=O)C(C(O)C2CNC(=N)N2)NC(=O)C(Cc2ccc(OC3OC(CO)C(OC4OC5COC(c6ccsc6)OC5C(O)C4O)C(O)C3O)cc2)NC1=O` (stereo not shown) [Example 133] as the compound, how does the “MIC Enterococcus avium (GC 4558)” value (Enterococcus sp.; Enterococcus avium (GC 4558)) read?
A: The value was 8 µg/mL (≈ 5.76 µM).

Q: What about the “MIC Enterococcus faecalis (ATCC 29212)” value (Enterococcus sp.; Enterococcus faecalis (ATCC 29212)) of the same compound?
A: Its value is 8 µg/mL (≈ 5.76 µM).

Q: And the “MIC Enterococcus faecalis (GC 2242)” value (Enterococcus sp.; Enterococcus faecalis (GC 2242))?
A: The value was 4 µg/mL (≈ 2.88 µM).

Q: And the “MIC Enterococcus faecalis (GC 2691)” value (Enterococcus sp.; Enterococcus faecalis (GC 2691))?
A: Its value is 8 µg/mL (≈ 5.76 µM).

Q: What about the “MIC Enterococcus faecalis (GC 3059)” value (Enterococcus sp.; Enterococcus faecalis (GC 3059)) of the same compound?
A: The value was 8 µg/mL (≈ 5.76 µM).

Q: And the “MIC Enterococcus faecalis (GC 4552)” value (Enterococcus sp.; Enterococcus faecalis (GC 4552))?
A: The value was 8 µg/mL (≈ 5.76 µM).

Q: And the “MIC Enterococcus faecalis (GC 4553)” value (Enterococcus sp.; Enterococcus faecalis (GC 4553))?
A: The value was 8 µg/mL (≈ 5.76 µM).

Q: What about the “MIC Enterococcus faecalis (GC 4554)” value (Enterococcus sp.; Enterococcus faecalis (GC 4554)) of the same compound?
A: Its value is 8 µg/mL (≈ 5.76 µM).

Q: And the “MIC Enterococcus faecalis (GC 6189)” value (Enterococcus sp.; Enterococcus faecalis (GC 6189))?
A: Its value is 4 µg/mL (≈ 2.88 µM).

Q: What about the “MIC Enterococcus faecium (GC 2243)” value (Enterococcus sp.; Enterococcus faecium (GC 2243)) of the same compound?
A: Its value is 8 µg/mL (≈ 5.76 µM).

Q: And the “MIC Enterococcus faecium (GC 4556)” value (Enterococcus sp.; Enterococcus faecium (GC 4556))?
A: Its value is 8 µg/mL (≈ 5.76 µM).

Q: What about the “MIC Enterococcus faecium (GC 4557)” value (Enterococcus sp.; Enterococcus faecium (GC 4557)) of the same compound?
A: The value was 2 µg/mL (≈ 1.44 µM).

Q: What about the “MIC Enterococcus faecalis (ATCC 29212)” value (Enterococcus sp.; strain ATCC 29212) of the same compound?
A: The value was 8 µg/mL (≈ 5.76 µM).

Q: What about the “MIC Enterococcus faecalis (GC 2242)” value (Enterococcus sp.; strain GC 2242) of the same compound?
A: The value was 4 µg/mL (≈ 2.88 µM).

Q: And the “MIC Enterococcus faecium (GC 2243)” value (Enterococcus sp.; strain GC 2243)?
A: The value was 8 µg/mL (≈ 5.76 µM).

Q: And the “MIC Enterococcus faecalis (GC 2691)” value (Enterococcus sp.; strain GC 2691)?
A: Its value is 8 µg/mL (≈ 5.76 µM).

Q: And the “MIC Enterococcus faecalis (GC 3059)” value (Enterococcus sp.; strain GC 3059)?
A: The value was 8 µg/mL (≈ 5.76 µM).

Q: What about the “MIC Enterococcus faecalis (GC 4552)” value (Enterococcus sp.; strain GC 4552) of the same compound?
A: Its value is 8 µg/mL (≈ 5.76 µM).

Q: What about the “MIC Enterococcus faecalis (GC 4553)” value (Enterococcus sp.; strain GC 4553) of the same compound?
A: Its value is 8 µg/mL (≈ 5.76 µM).

Q: What about the “MIC Enterococcus faecalis (GC 4554)” value (Enterococcus sp.; strain GC 4554) of the same compound?
A: The value was 8 µg/mL (≈ 5.76 µM).

Q: And the “MIC Enterococcus faecium (GC 4556)” value (Enterococcus sp.; strain GC 4556)?
A: Its value is 8 µg/mL (≈ 5.76 µM).

Q: And the “MIC Enterococcus faecium (GC 4557)” value (Enterococcus sp.; strain GC 4557)?
A: The value was 2 µg/mL (≈ 1.44 µM).

Q: And the “MIC Enterococcus avium (GC 4558)” value (Enterococcus sp.; strain GC 4558)?
A: Its value is 8 µg/mL (≈ 5.76 µM).

Q: What about the “MIC Enterococcus faecalis (GC 6189)” value (Enterococcus sp.; strain GC 6189) of the same compound?
A: The value was 4 µg/mL (≈ 2.88 µM).

Q: What about the “MIC Escherichia coli (ATCC 25922)” value (Escherichia coli; strain ATCC 25922) of the same compound?
A: The value was 64 µg/mL (≈ 46.1 µM).

Q: What about the “MIC Escherichia coli (GC 4559)” value (Escherichia coli; strain GC 4559) of the same compound?
A: The value was 32 µg/mL (≈ 23 µM).

Q: And the “MIC Escherichia coli (GC 4560)” value (Escherichia coli; strain GC 4560)?
A: Its value is <0.5 µg/mL.

Q: What about the “MIC Streptococcus agalactiae (GC 4564)” value (Streptococcus sp.; Streptococcus agalactiae (GC 4564)) of the same compound?
A: Its value is <0.5 µg/mL.

Q: What about the “MIC Streptococcus pneumoniae (ATCC 6301)” value (Streptococcus sp.; Streptococcus pneumoniae (ATCC 6301)) of the same compound?
A: The value was <0.5 µg/mL.

Q: And the “MIC Streptococcus pneumoniae (GC 1894)” value (Streptococcus sp.; Streptococcus pneumoniae (GC 1894))?
A: Its value is <0.5 µg/mL.

Q: And the “MIC Streptococcus pneumoniae (GC 4565)” value (Streptococcus sp.; Streptococcus pneumoniae (GC 4565))?
A: The value was 4 µg/mL (≈ 2.88 µM).

Q: And the “MIC Streptococcus pyogenes (GC 4563)” value (Streptococcus sp.; Streptococcus pyogenes (GC 4563))?
A: The value was <0.5 µg/mL.

Q: And the “MIC Streptococcus pneumoniae (ATCC 6301)” value (Streptococcus sp.; strain ATCC 6301)?
A: The value was <0.5 µg/mL.

Q: And the “MIC Streptococcus pneumoniae (GC 1894)” value (Streptococcus sp.; strain GC 1894)?
A: The value was <0.5 µg/mL.

Q: What about the “MIC Streptococcus pyogenes (GC 4563)” value (Streptococcus sp.; strain GC 4563) of the same compound?
A: The value was <0.5 µg/mL.

Q: What about the “MIC Streptococcus agalactiae (GC 4564)” value (Streptococcus sp.; strain GC 4564) of the same compound?
A: The value was <0.5 µg/mL.

Q: And the “MIC Streptococcus pneumoniae (GC 4565)” value (Streptococcus sp.; strain GC 4565)?
A: Its value is 4 µg/mL (≈ 2.88 µM).

Q: What about the “MIC Staphylococcus aureus (ATCC 29213)” value (Staphylococcus sp.) of the same compound?
A: The value was 1 µg/mL (≈ 0.72 µM).

Q: What about the “MIC Staphylococcus aureus (GC 1131)” value (Staphylococcus sp.) of the same compound?
A: The value was 2 µg/mL (≈ 1.44 µM).

Q: What about the “MIC Staphylococcus aureus (GC 3051)” value (Staphylococcus sp.) of the same compound?
A: Its value is 1 µg/mL (≈ 0.72 µM).

Q: What about the “MIC Staphylococcus aureus (GC 3053)” value (Staphylococcus sp.) of the same compound?
A: Its value is 4 µg/mL (≈ 2.88 µM).

Q: And the “MIC Staphylococcus aureus (GC 4541)” value (Staphylococcus sp.)?
A: Its value is 1 µg/mL (≈ 0.72 µM).

Q: What about the “MIC Staphylococcus aureus (GC 4542)” value (Staphylococcus sp.) of the same compound?
A: Its value is 2 µg/mL (≈ 1.44 µM).

Q: What about the “MIC Staphylococcus aureus (GC 4544)” value (Staphylococcus sp.) of the same compound?
A: The value was 2 µg/mL (≈ 1.44 µM).

Q: And the “MIC Staphylococcus aureus (GC 4545)” value (Staphylococcus sp.)?
A: The value was 1 µg/mL (≈ 0.72 µM).

Q: What about the “MIC Staphylococcus aureus (GC 1131)” value (Staphylococcus sp.; inoculum 5×10^5 CFU/mL, strain GC 1131) of the same compound?
A: Its value is 2 µg/mL (≈ 1.44 µM).

Q: What about the “MIC Staphylococcus aureus (ATCC 29213)” value (Staphylococcus sp.; strain ATCC 29213) of the same compound?
A: Its value is 1 µg/mL (≈ 0.72 µM).

Q: And the “MIC Staphylococcus aureus (GC 3051)” value (Staphylococcus sp.; strain GC 3051)?
A: Its value is 1 µg/mL (≈ 0.72 µM).

Q: And the “MIC Staphylococcus aureus (GC 3053)” value (Staphylococcus sp.; strain GC 3053)?
A: Its value is 4 µg/mL (≈ 2.88 µM).

Q: What about the “MIC Staphylococcus aureus (GC 4541)” value (Staphylococcus sp.; strain GC 4541) of the same compound?
A: Its value is 1 µg/mL (≈ 0.72 µM).

Q: What about the “MIC Staphylococcus aureus (GC 4542)” value (Staphylococcus sp.; strain GC 4542) of the same compound?
A: The value was 2 µg/mL (≈ 1.44 µM).

Q: And the “MIC Staphylococcus aureus-SMITH (GC 4543)” value (Staphylococcus sp.; strain GC 4543)?
A: Its value is 1 µg/mL (≈ 0.72 µM).

Q: And the “MIC Staphylococcus aureus (GC 4544)” value (Staphylococcus sp.; strain GC 4544)?
A: The value was 2 µg/mL (≈ 1.44 µM).

Q: And the “MIC Staphylococcus aureus (GC 4545)” value (Staphylococcus sp.; strain GC 4545)?
A: Its value is 1 µg/mL (≈ 0.72 µM).

Q: What about the “MIC Staphylococcus haemolyticus (GC 4546)” value (Staphylococcus sp.; strain GC 4546) of the same compound?
A: Its value is 1 µg/mL (≈ 0.72 µM).

Q: And the “MIC Coagulase Negative Staphylococcus (GC 4547)” value (Staphylococcus sp.; strain GC 4547)?
A: The value was 1 µg/mL (≈ 0.72 µM).

Q: What about the “MIC Coagulase Negative Staphylococcus (GC 4548)” value (Staphylococcus sp.; strain GC 4548) of the same compound?
A: The value was <0.5 µg/mL.

Q: And the “MIC Coagulase Negative Staphylococcus (GC 4549)” value (Staphylococcus sp.; strain GC 4549)?
A: Its value is 1 µg/mL (≈ 0.72 µM).

Q: And the “MIC Coagulase Negative Staphylococcus (GC 4551)” value (Staphylococcus sp.; strain GC 4551)?
A: The value was 1 µg/mL (≈ 0.72 µM).

Q: What about the “MIC Coagulase Negative Staphylococcus (GC 6257)” value (Staphylococcus sp.; strain GC 6257) of the same compound?
A: The value was 1 µg/mL (≈ 0.72 µM).

Q: What about the “MIC Staphylococcus aureus-SMITH (GC 4543)” value (Staphylococcus sp.; strain SMITH GC 4543) of the same compound?
A: The value was 1 µg/mL (≈ 0.72 µM).
